The values below come from publication PMC5914092, “Evaluation of Aldose Reductase, Protein Glycation, and Antioxidant Inhibitory Activities of Bioactive Flavonoids in Matricaria recutita L. and Their Structure-Activity Relationship” (Journal of Diabetes Research, 2018).

By inhibition is commonly meant the share of the control response that was lost under treatment.

The nature of assay [1]: DPPH free radical scavenging capacity. The note with it: concentrations 15, 30, 75 μg/mL, mean ± RSD. How it is done: DPPH, a stable free radical, was used to determine the free radical-scavenging activity of the extracts. Briefly, a 0.32 mM DPPH solution in MeOH were prepared, and 180 μL of this solution was mixed with 30 μL of each sample at concentrations of 0.05–1.0 mg/mL in DMSO. After 20 min of incubation in the dark, the decrease in the absorbance of the solution was measured at 570 nm on a microplate reader (EL800 Universal Microplate reader, Bio-Tek instruments, Winooski, VT, USA). DPPH radical-scavenging activity was expressed as the percentage inhibition (%) of DPPH in this assay system and was calculated as (1 − B/A) × 100, where A and B are the activities of DPPH without and with the test material, respectively.
(DPPH is a stable violet radical that fades when it is reduced.)

For assay [2], the system named is sorbitol accumulation in rat lens. The assay is described as follows: Lens culture and intracellular sorbitol measurement (ex vivo, high glucose). It counts as cell-based. The note with it: for inhibition at 5 µg/mL: read-out: Inhibition (%) of sorbitol accumulation in rat lens; for Sorbitol content (mg)/lens wet weight (g): rat lens cultured 6 d in medium with 30 mM glucose, control by G 1.47 ± 0.02. How it is done: Lens isolated from 10-week old Sprague-Dawley rats were cultured for 6 d in TC-199 medium containing 15% fetal bovine serum, 100 units/mL penicillin, and 0.1 mg/mL streptomycin, under sterile conditions and an atmosphere of 5% CO2 and 95% air at 37°C. Samples were dissolved in DMSO. The lens were divided into three groups (each group n = 3) and cultured in medium containing 30 mM glucose and RLAR-active compounds. Each lens was placed in a well containing 2.0 mL medium. Sorbitol was identified by HPLC after its derivatization by reaction with benzoic acid to form a fluorescent compound [25].

For assay [3], the system named is advanced glycation end products (AGEs). As to the kind of experiment: Methylglyoxal-bovine serum albumin assay investigating AGE formation. It is filed as biochemical. As to conditions: methylglyoxal-BSA, 37°C 24 h, mean ± RSD. How it is done: Bovine serum albumin (50 mg/mL) was incubated with methylglyoxal (100 mM) in sodium phosphate buffer (0.1 M, pH 7.4) in the presence of various concentrations of the compounds (including a control) at 37°C for 24 h. Then the fluorescent intensity was measured at an excitation wavelength of 355 nm and an emission wavelength of 460 nm with a luminescence spectrometer LS50B (PerkinElmer Ltd., Buckinghamshire, England). […] All reagents and samples were sterilized by filtration through […] membrane filters.

Assay [4] concerns the target T1, rat lens aldose reductase (RLAR) (Rattus norvegicus, UniProt P07943).
T1 construct: The supernatant was collected and used as RLAR; from tissue; host or cells: lens of Sprague-Dawley rats (supernatant of the homogenate after 10,000g)
The note with it: cited from earlier work; for IC50: compounds isolated from other plant sources, read-out: RLAR inhibitory activity (reported data).

For assay [5], the target named is T1, rat lens aldose reductase (RLAR). As to the kind of experiment: Determination of RLAR inhibition (NADPH absorbance decrease at 340 nm, DL-glyceraldehyde substrate). It counts as biochemical. As to conditions: crude RLAR homogenate; inhibitor concentrations 1, 5, 10 μg/mL; mean ± RSD; NI: no inhibition. The protocol: Crude RLAR was prepared as follows: lenses were removed from Sprague-Dawley rats (weighing 250–280 g) and frozen at −70°C until use. Noncataractous transparent lenses were pooled and a homogenate was prepared in 0.1 M phosphate buffered saline (pH 6.2). The RLAR homogenate was then centrifuged at 10,000g for 20 min at 4°C in a refrigerated centrifuge. The supernatant was collected and used as RLAR [22].
A total of 531 μL of 0.1 M potassium buffer (pH 7.0), 90 μL of NADPH solution (1.6 mM in potassium buffer), 90 μL of RLAR homogenate (6.5 U/mg), 90 μL of ammonium sulfate solution (4 M in potassium buffer), and 90 μL of DL-glyceraldehyde (25 mM in potassium buffer) were mixed with 9 μL of different concentrations of samples (1–0.1 mg/mL in DMSO, less than 1% in total mixture) in a cuvette, and the activity of RLAR was assessed spectrophotometrically by measuring the decrease in NADPH absorbance at 340 nm for 3 minutes using a spectrophotometer (SECOMAM, Ales Cedex, France).

Setting [6] is: sample 5 μg/mL, mean ± SD (n = 3).
Setting [7] is: concentrations 10, 25, 50 μg/mL, NI: no inhibition.
Where [8] appears, read: rat lens cultured in 30 mM glucose, sample 5 μg/mL, mean ± SD (n = 3).

Entries after “also recorded” stand apart in the source; their conditions may differ. Read-outs that look alike come from different tables or passages of the source. Marks after values point to notes of the source that are not given here. Bounds are passed on as bounds.

Regarding `O=C1O[C@H]([C@@H](O)CO)C(O)=C1O` [L-Ascorbic acid, reference compound], the “IC50 DPPH” value in assay [1] (three independent experiments in duplicate) is listed as 6.60 ± 0.33^a μg/mL.
For `O=C(C=Cc1ccc(O)c(O)c1)OC1CC(O)(C(=O)O)CC(OC(=O)C=Cc2ccc(O)c(O)c2)C1O` (stereo not drawn) [Compound 7, 3,5-O-di-caffeoylquinic acid], in assay [2] (Rattus norvegicus), the inhibition at 5 µg/mL was 86.4 ± 4.28%. For the same compound, the “Sorbitol content (mg)/lens wet weight (g)” value (from here on “Sorbitol content”) in assay [2] (setting [6]) is listed as 0.20 ± 0.01^a mg/g. In assay [3] (setting [7]), this compound gave an IC50 of over 97 µM.
For `O=c1cc(-c2ccc(O)c(O)c2)oc2cc(O)cc(O[C@@H]3O[C@H](CO)[C@@H](O)[C@H](O)[C@H]3O)c12` [luteolin-5-O-β-D-glucopyranoside, reference compound], the “Inhibitory activity on RLAR relative to its precursor (luteolin)” value in assay [4] (isolated from Cirsium maackii) is recorded as about 1.58 times.
Consider `O=c1cc(-c2ccc(O)cc2)oc2cc(O)c(O)c(O)c12` [Compound 8, 6-hydroxyapigenin], for which, in assay [3] (setting [7]), the IC50 is over 97 µM and the “IC50 AGEs” value is recorded as “did not show inhibitory activities”. Also, in assay [5], the IC50 is over 28 µM and the “IC50 RLAR” value is “inactive; also recorded: did not show inhibitory activities”. Further, in assay [1] (NI: no inhibition), the IC50 was over 208 µM and the “IC50 DPPH” value was “almost no effect”.
On to `O=c1cc(-c2ccc(O)c(O)c2)oc2cc(O[C@@H]3O[C@H](CO)[C@@H](O)[C@H](O)[C@H]3O)cc(O)c12` [Compound 2, luteolin-7-O-β-D-glucoside], for which the “Sorbitol content” value in assay [2] (setting [6]) is on record as 0.07 ± 0.01^a mg/g. The inhibition at 5 µg/mL in assay [2] (setting [8]) is 95.2 ± 8.18%. Further, the figures for the IC50 in assay [3] (setting [7]) and in assay [4] were over 97 µM and 0.99 µM, respectively.
Take `COc1cc2oc(-c3ccc(O)cc3)c(OC)c(=O)c2c(O)c1OC` [Compound 3, penduletin]: in assay [3] (setting [7]), the IC50 was over 97 µM and the “IC50 AGEs” value is recorded as “did not show inhibitory activities”. Also, in assay [5], the IC50 is over 28 µM and the “IC50 RLAR” value is “inactive; also recorded: did not show inhibitory activities”. Also, in assay [1] (NI: no inhibition), the IC50 is over 208 µM and the “IC50 DPPH” value is “almost no effect”.
For `O=c1cc(-c2ccc(O)c(O)c2)oc2cc(O)cc(O)c12` [Compound 10, luteolin], the “Sorbitol content” value in assay [2] (setting [6]) is on record as 0.12 ± 0.01^a mg/g. In addition, in assay [2] (setting [8]), the inhibition at 5 µg/mL was determined as 91.8 ± 6.87%.
For `O=c1c(O)c(-c2ccc(O)c(O)c2)oc2cc(O)cc(O)c12` [Quercetin, quercetin, reference compound] the same measures were 0.21 ± 0.01^a mg/g and 85.7 ± 3.23%.
For `O=c1cc(-c2ccc(O)cc2)oc2cc(O)cc(O)c12` [Compound 9, apigenin], the “Sorbitol content” value in assay [2] (setting [6]) was 0.19 ± 0.01^a mg/g. Besides, the inhibition at 5 µg/mL in assay [2] (setting [8]) is 87.1 ± 4.48%. The compound also showed an IC50 in assay [3] (setting [7]) of over 97 µM.
`N=C(N)NN` [Aminoguanidine, aminoguanidine, reference compound]: the “IC50 AGEs” value in assay [3] (concentrations 20, 100, 200 μg/mL) was 109.10 ± 3.47^a μg/mL.
On to `O=C(O)[C@H]1O[C@@H](Oc2cc(O)c3c(=O)cc(-c4ccc(O)c(O)c4)oc3c2)[C@H](O)[C@@H](O)[C@@H]1O` [Compound 6, luteolin-7-O-β-D-glucuronide], for which, in assay [2] (setting [6]), the “Sorbitol content” value is recorded as 0.12 ± 0.01^a mg/g. Further, the inhibition at 5 µg/mL in assay [2] (setting [8]) is 91.8 ± 6.74%.
With `O=C(O)[C@H]1O[C@@H](Oc2cc(O)c3c(=O)cc(-c4ccc(O)cc4)oc3c2)[C@H](O)[C@@H](O)[C@@H]1O` [Compound 5, apigenin-7-O-β-D-glucuronide], in assay [2] (setting [6]), the “Sorbitol content” value is 0.29 ± 0.01^b mg/g. The inhibition at 5 µg/mL in assay [2] (setting [8]) is 80.3 ± 2.78%. The compound further yielded an IC50 in assay [3] (setting [7]) of over 97 µM.
Turning to `O=c1cc(-c2ccc(O)cc2)oc2cc(O[C@@H]3O[C@H](CO)[C@@H](O)[C@H](O)[C@H]3O)cc(O)c12` [Compound 1, apigenin-7-O-β-D-glucoside], in assay [2] (setting [6]), the “Sorbitol content” value was 0.72 ± 0.01^c mg/g. The inhibition at 5 µg/mL in assay [2] (setting [8]) is 51 ± 1.68%. Also, the IC50 is over 97 µM in assay [3] (setting [7]), over 250 µM in assay [1] (NI: no inhibition) and 23 µM in assay [4].
